Assay results taken from ChEMBL document CHEMBL3217457, “Carbazolepyrrolo[2,1-c][1,4]benzodiazepine conjugates: design, synthesis, and biological evaluation” (Medchemcomm, 2011).
The source made the active and inactive calls. The calls are words filed in the database; no cut-off is given here.

Tests used:
[1] = Growth inhibition of human HOP92 cells; type: functional; settings: HOP-92
[2] = system: HOP-62; test: Growth inhibition of human HOP62 cells; type: functional
[3] = system: A2780; test: Growth inhibition of human A2780 cells; type: functional
[4] = Growth inhibition of human Hs 578T cells; type: functional
[5] = system: TK-10; test: Growth inhibition of human TK10 cells; type: functional
[6] = system: SK-MEL-2; test: Growth inhibition of human SK-MEL-2 cells; type: functional
[7] = system: SNB-75; test: Growth inhibition of human SNB75 cells; type: functional
[8] = system: CAKI-1; test: Growth inhibition of human CAKI-1 cells; type: functional
[9] = Growth inhibition of human OVCAR8 cells; type: functional; settings: OVCAR-8
[10] = system: U-251; test: Growth inhibition of human U251 cells; type: functional
[11] = system: MCF7; test: Growth inhibition of human MCF7 cells; type: functional
[12] = system: NCI-H322M; test: Growth inhibition of human NCI-H322M cells; type: functional
[13] = system: HT-29; test: Growth inhibition of human HT-29 cells; type: functional
[14] = system: COLO 205; test: Growth inhibition of human COLO205 cells; type: functional
[15] = system: 786-0; test: Growth inhibition of human 786-0 cells; type: functional
[16] = Growth inhibition of human EKVX cells; type: functional
[17] = Growth inhibition of human BT549 cells; type: functional; settings: BT-549
[18] = system: SiHa; test: Growth inhibition of human SiHa cells; type: functional
[19] = system: SR; test: Growth inhibition of human SR cells; type: functional
[20] = system: A498; test: Growth inhibition of human A498 cells; type: functional
[21] = system: DU-145; test: Growth inhibition of human DU145 cells; type: functional
[22] = Growth inhibition of human MDA-MB cells; type: functional
[23] = Growth inhibition of human HCC2998 cells; type: functional; settings: HCC 2998
[24] = system: SN12C; test: Growth inhibition of human SN12C cells; type: functional
[25] = system: ACHN; test: Growth inhibition of human ACHN cells; type: functional
[26] = system: Calf thymus DNA; test: Binding affinity to calf thymus DNA assessed as change in melting temperature at compound to DNA ratio of 1:5 after 18 hrs by thermal denaturation analysis; type: nucleic-acid assay; settings: Bos taurus
[27] = system: SK-MEL-5; test: Growth inhibition of human SK-MEL-5 cells; type: functional
[28] = Growth inhibition of human Gurav cells; type: functional
[29] = system: SF-268; test: Growth inhibition of human SF268 cells; type: functional
[30] = system: A549; test: Growth inhibition of human A549/ATCC cells; type: functional
[31] = Growth inhibition of human MOLT4 cells; type: functional; settings: MOLT-4
[32] = system: PC-3; test: Growth inhibition of human PC3 cells; type: functional
[33] = system: NCI-H226; test: Growth inhibition of human NCI-H226 cells; type: functional
[34] = Growth inhibition of human RXF393 cells; type: functional; settings: RXF 393
[35] = system: SNB-19; test: Growth inhibition of human SNB19 cells; type: functional
[36] = system: SK-MEL-28; test: Growth inhibition of human SK-MEL-28 cells; type: functional
[37] = Growth inhibition of human OVCAR3 cells; type: functional; settings: OVCAR-3
[38] = system: HCT-116; test: Growth inhibition of human HCT116 cells; type: functional
[39] = system: KB; test: Growth inhibition of human KB cells; type: functional
[40] = system: MCF7; test: Cell cycle arrest in human MCF7 cells assessed as accumulation at G2/M phase at 4 uM after 24 hrs by propidium iodide staining based flow cytometry (reference value: 24.95%); type: functional
[41] = system: RPMI-8226; test: Growth inhibition of human RPMI8226 cells; type: functional
[42] = system: T47D; test: Growth inhibition of human T47D cells; type: functional
[43] = system: HL-60(TB); test: Growth inhibition of human HL-60(TB) cells; type: functional
[44] = system: MCF7; test: Cell cycle arrest in human MCF7 cells assessed as accumulation at S phase at 4 uM after 24 hrs by propidium iodide staining based flow cytometry (reference value: 14.30%); type: functional
[45] = Growth inhibition of human SF539 cells; type: functional; settings: SF-539
[46] = Growth inhibition of human UO31 cells; type: functional; settings: UO-31
[47] = system: MCF7; test: Cell cycle arrest in human MCF7 cells assessed as accumulation at G0 phase at 4 uM after 24 hrs by propidium iodide staining based flow cytometry (reference value: 2.77%); type: functional
[48] = system: MDA-MB-435; test: Growth inhibition of human MDA-MB-435 cells; type: functional
[49] = system: MDA-MB-468; test: Growth inhibition of human MDA-MB-468 cells; type: functional
[50] = Growth inhibition of human LOXIMVI cells; type: functional; settings: LOX IMVI
[51] = Growth inhibition of human OVCAR5 cells; type: functional; settings: OVCAR-5
[52] = system: NCI-H522; test: Growth inhibition of human NCI-H522 cells; type: functional
[53] = Growth inhibition of human OVCAR4 cells; type: functional; settings: OVCAR-4
[54] = Growth inhibition of human UACC257 cells; type: functional; settings: UACC-257
[55] = system: CCRF-CEM; test: Growth inhibition of human CCRF-CEM cells; type: functional
[56] = system: SK-OV-3; test: Growth inhibition of human SKOV3 cells; type: functional
[57] = system: MCF7; test: Cell cycle arrest in human MCF7 cells assessed as accumulation at G0/G1 phase at 4 uM after 24 hrs by propidium iodide staining based flow cytometry (reference value: 60.75%); type: functional
[58] = Growth inhibition of human HCT15 cells; type: functional; settings: HCT-15
[59] = system: IGROV-1; test: Growth inhibition of human IGROV1 cells; type: functional
[60] = system: Malme-3M; test: Growth inhibition of human MALME-3M cells; type: functional
[61] = system: NCI-H23; test: Growth inhibition of human NCI-H23 cells; type: functional
[62] = system: A549; test: Growth inhibition of human A549 cells; type: functional
[63] = system: ZR-75-1; test: Growth inhibition of human ZR-75-1 cells; type: functional
[64] = system: SW-620; test: Growth inhibition of human SW620 cells; type: functional
[65] = system: MCF7; test: Cell cycle arrest in human MCF7 cells assessed as accumulation at G1 phase at 4 uM after 24 hrs by propidium iodide staining based flow cytometry (reference value: 57.98%); type: functional
[66] = system: NCI-H460; test: Growth inhibition of human NCI-H460 cells; type: functional
[67] = system: K562; test: Growth inhibition of human K562 cells; type: functional
[68] = system: KM12; test: Growth inhibition of human KM12 cells; type: functional
[69] = Growth inhibition of human UACC62 cells; type: functional; settings: UACC-62
[70] = system: M14; test: Growth inhibition of human M14 cells; type: functional
[71] = system: MCF7; test: Cytotoxicity against human MCF7 cells assessed as decrease in cell viability at 4 uM after 24 hrs by MTT assay; type: functional, cell-based
[72] = system: MCF7; test: Cytotoxicity against human MCF7 cells assessed as decrease in cell viability at 2 to 16 uM after 6 to 48 hrs by MTT assay; type: functional, cell-based
[73] = system: MCF7; test: Cytotoxicity against human MCF7 cells by ATP-dependent cell viability assay; type: functional, cell-based
[74] = system: MCF7; test: Antiproliferative activity against human MCF7 cells assessed as cell proliferation at 4 uM after 24 hrs by BrdU incorporation assay (reference value: 100%); type: functional; settings: MCF7, 24 h, read-out: Activity

COc1cc2c(cc1OCCCCCn1c3ccccc3c3ccccc31)N=C[C@@H]1CCCN1C2=O
GI50 [1]: 1.31 µM
GI50 [2]: 1.8 µM
GI50 [3]: 1.32 µM
GI50 [4]: 1.97 µM
GI50 [5]: 2.25 µM
GI50 [6]: 1.67 µM
GI50 [7]: 1.05 µM
GI50 [8]: 1.93 µM
GI50 [9]: 2.55 µM
GI50 [10]: 1.59 µM
GI50 [11]: 1.64 µM
GI50 [12]: 3.83 µM
GI50 [13]: 2.08 µM
GI50 [14]: 1.64 µM
GI50 [15]: 1.73 µM
GI50 [16]: 5.27 µM
GI50 [17]: 2.03 µM
GI50 [18]: 1.68 µM
GI50 [19]: 1.54 µM
GI50 [20]: 1.74 µM
GI50 [21]: 2.23 µM
GI50 [22]: 2.14 µM
GI50 [23]: 1.71 µM
GI50 [24]: 1.94 µM
GI50 [25]: 1.77 µM
ΔTm [26]: 4.9 °C
GI50 [27]: 1.73 µM
GI50 [28]: 1.61 µM
GI50 [29]: 1.91 µM
GI50 [30]: 1.57 µM
GI50 [31]: 2.15 µM
GI50 [32]: 2.3 µM
GI50 [33]: 2.49 µM
GI50 [34]: 4.34 µM
GI50 [35]: 2.05 µM
GI50 [36]: 1.8 µM
GI50 [37]: 1.88 µM
GI50 [38]: 1.65 µM
GI50 [39]: 1.8 µM
Activity [40]: 15.38%
GI50 [41]: 1.72 µM
GI50 [42]: 2.79 µM
GI50 [43]: 1.72 µM
Activity [44]: 13.03%
GI50 [45]: 1.85 µM
GI50 [46]: 1.52 µM
Activity [47]: 3.45%
GI50 [48]: 1.73 µM
GI50 [49]: 2.26 µM
GI50 [50]: 2.08 µM
GI50 [51]: 2.42 µM
GI50 [52]: 1.65 µM
GI50 [53]: 3.09 µM
GI50 [54]: 2.29 µM
GI50 [55]: 1.97 µM
GI50 [56]: 4.57 µM
Activity [57]: 71.69%
GI50 [58]: 1.67 µM
GI50 [59]: 2.08 µM
GI50 [60]: 2.2 µM
GI50 [61]: 2.69 µM
GI50 [62]: 1.42 µM
GI50 [63]: 1.76 µM
GI50 [64]: 1.85 µM
Activity [65]: 68.24%
GI50 [66]: 1.96 µM
GI50 [67]: 2.6 µM
GI50 [68]: 1.96 µM
GI50 [69]: 1.86 µM
GI50 [70]: 2.1 µM

COc1cc2c(cc1OCCCN1CCN(CCCn3c4ccccc4c4ccccc43)CC1)N=C[C@@H]1CCCN1C2=O
GI50 [1]: 0.27 µM
GI50 [2]: 0.08 µM
GI50 [3]: 0.12 µM
GI50 [4]: 0.16 µM
GI50 [5]: 0.12 µM
GI50 [6]: 0.19 µM
GI50 [7]: 0.15 µM
GI50 [8]: 0.12 µM
GI50 [10]: 0.03 µM
GI50 [11]: 0.04 µM
GI50 [12]: 0.25 µM
GI50 [13]: 0.05 µM
GI50 [14]: 0.07 µM
GI50 [15]: 0.19 µM
GI50 [16]: 0.14 µM
GI50 [17]: 0.13 µM
GI50 [18]: 0.14 µM
GI50 [19]: 0.03 µM
inhibition [71]: Active
GI50 [20]: 0.17 µM
GI50 [21]: 0.04 µM
GI50 [22]: 0.95 µM
GI50 [23]: 0.13 µM
GI50 [24]: 0.27 µM
GI50 [25]: 0.25 µM
ΔTm [26]: 7 °C
GI50 [27]: 0.23 µM
GI50 [28]: 0.12 µM
GI50 [29]: 0.05 µM
GI50 [31]: 0.02 µM
GI50 [32]: 0.03 µM
GI50 [33]: 0.13 µM
GI50 [34]: 0.22 µM
inhibition [72]: Active
GI50 [35]: 0.21 µM
GI50 [36]: 0.06 µM
GI50 [37]: 0.069 µM
GI50 [38]: 0.06 µM
GI50 [39]: 0.13 µM
Activity [40]: 3.87%
GI50 [42]: 0.17 µM
GI50 [43]: 0.03 µM
Activity [44]: 9.53%
GI50 [45]: 0.12 µM
GI50 [46]: 0.12 µM
Activity [47]: 17.13%
inhibition [73]: Active
GI50 [48]: 0.01 µM
GI50 [49]: 0.11 µM
GI50 [50]: 0.03 µM
GI50 [51]: 0.03 µM
GI50 [52]: < 0.01 µM
GI50 [53]: 0.1 µM
GI50 [54]: 0.15 µM
GI50 [55]: 0.02 µM
GI50 [56]: 0.29 µM
growth at 4 µM [74]: 35.2%
Activity [57]: 86.6%
GI50 [58]: 0.28 µM
GI50 [59]: < 0.01 µM
GI50 [60]: 0.15 µM
GI50 [61]: 0.26 µM
GI50 [62]: 0.14 µM
GI50 [63]: 0.13 µM
GI50 [64]: 0.04 µM
Activity [65]: 69.47%
GI50 [66]: 0.25 µM
GI50 [68]: 0.15 µM
GI50 [69]: 0.15 µM
GI50 [70]: 0.15 µM
